Reference: EP0007672A1, “Isocyanoalkenes, process and useful intermediates for their preparation, pharmaceutical and fungicidal preparations containing those isocyanoalkenes and the use of the fungicidal preparations in agriculture” (GIST-BROCADES N.V., priority 1978, dated 1980)
Converted amounts (≈) assume the structure as drawn. Like-named read-outs stand apart in the source and are kept apart here.

Columns and labels:
Test in all cases: MIC (Minimum Inhibitory Concentration)
Format in all cases: cell-based
Trichophyton violoceum = Trichophyton violoceum 442-62; read-out: MIC values
[1] = tested on: Trichophyton mentagrophytus
Fusarium (bulb) = Fusarium (bulb) A 3252
Trichophyton equinum = tested on: Trichophyton equinum
Fusarium solani = Fusarium solani A 3245; read-out: MIC values
[2] = tested on: Trichophyton soudanese joyeux; conditions: Trichophyton soudanese joyeux 440-63; read-out: MIC values
Fusarium (tulip) = Fusarium (tulip) A 3253
Rhizoctonia solani = Rhizoctonia solani 200-25; read-out: MIC values
Candida albicans = tested on: Candida albicans
Trichophyton quickeaneum = Trichophyton quickeaneum A 2040; read-out: MIC values
[3] = tested on: Trichophyton schoenleinii; conditions: Trichophyton schoenleinii 435-63; read-out: MIC values
Trichophyton rubrum = Trichophyton rubrum 494-62, read-out: MIC values

Compound: [C-]#[N+]C(=Cc1ccccc1)S(=O)(=O)c1ccc(C)cc1 [Example 1, 1-isocyano-2-phenyl-1-(4-toluenesulphonyl)-ethene]
- MIC (Trichophyton violoceum): 0.1 µg/mL (≈ 0.353 µM)
- MIC ([1]; Trichophyton mentagrophytus 367-68, read-out: MIC values): 1.5 µg/mL (≈ 5.29 µM)
- MIC ([1]; Trichophyton mentagrophytus 421-67, read-out: MIC values): 1.5 µg/mL (≈ 5.29 µM)
- MIC ([1]; Trichophyton mentagrophytus A 3252, read-out: MIC values): 1.5 µg/mL (≈ 5.29 µM)
- MIC ([1]; Trichophyton mentagrophytus R 177, read-out: MIC values): 6 µg/mL (≈ 21.2 µM)
- MIC ([1]; Trichophyton mentagrophytus R 178, read-out: MIC values): > 100 µg/mL
- MIC ([1]; Trichophyton mentagrophytus RRL 305, read-out: MIC values): 6 µg/mL (≈ 21.2 µM)
- MIC (Fusarium (bulb)): > 100 µg/mL
- MIC (Trichophyton equinum; Trichophyton equinum 182-76, read-out: MIC values): 3 µg/mL (≈ 10.6 µM)
- MIC (Trichophyton equinum; Trichophyton equinum 856-71, read-out: MIC values): 3 µg/mL (≈ 10.6 µM)
- MIC (Fusarium solani): 50 µg/mL (≈ 176 µM)
- MIC [2]: 12.5 µg/mL (≈ 44.1 µM)
- MIC (Fusarium (tulip)): 50 µg/mL (≈ 176 µM)
- MIC (Rhizoctonia solani): 4.5 µg/mL (≈ 15.9 µM)
- MIC (Candida albicans; Candida albicans A 7, read-out: MIC values): 1.5 µg/mL (≈ 5.29 µM)
- MIC (Candida albicans; Candida albicans A 3140, read-out: MIC values): 12.5 µg/mL (≈ 44.1 µM)
- MIC (Candida albicans; Candida albicans A 3141, read-out: MIC values): 12.5 µg/mL (≈ 44.1 µM)
- MIC (Candida albicans; Candida albicans A 3142, read-out: MIC values): 12.5 µg/mL (≈ 44.1 µM)
- MIC (Candida albicans; Candida albicans A 3143, read-out: MIC values): 12.5 µg/mL (≈ 44.1 µM)
- MIC (Candida albicans; Candida albicans A 3144, read-out: MIC values): 12.5 µg/mL (≈ 44.1 µM)
- MIC (Candida albicans; Candida albicans A 3145, read-out: MIC values): 12.5 µg/mL (≈ 44.1 µM)
- MIC (Candida albicans; Candida albicans A 3165, read-out: MIC values): 25 µg/mL (≈ 88.2 µM)
- MIC (Candida albicans; Candida albicans A 3166, read-out: MIC values): 12.5 µg/mL (≈ 44.1 µM)
- MIC (Candida albicans; Candida albicans A 3167, read-out: MIC values): 25 µg/mL (≈ 88.2 µM)
- MIC (Candida albicans; Candida albicans A 3168, read-out: MIC values): 12.5 µg/mL (≈ 44.1 µM)
- MIC (Candida albicans; Candida albicans A 3169, read-out: MIC values): 12.5 µg/mL (≈ 44.1 µM)
- MIC (Candida albicans; Candida albicans A 3171, read-out: MIC values): 12.5 µg/mL (≈ 44.1 µM)
- MIC (Candida albicans; Candida albicans A 3184, read-out: MIC values): 12.5 µg/mL (≈ 44.1 µM)
- MIC (Candida albicans; Candida albicans A 3190, read-out: MIC values): 6 µg/mL (≈ 21.2 µM)
- MIC (Candida albicans; Candida albicans A 3191, read-out: MIC values): 12.5 µg/mL (≈ 44.1 µM)
- MIC (Candida albicans; Candida albicans A 3192, read-out: MIC values): 6 µg/mL (≈ 21.2 µM)
- MIC (Candida albicans; Candida albicans A 3194, read-out: MIC values): 25 µg/mL (≈ 88.2 µM)
- MIC (Candida albicans; Candida albicans A 3196, read-out: MIC values): 12.5 µg/mL (≈ 44.1 µM)
- MIC (Trichophyton quickeaneum): 3 µg/mL (≈ 10.6 µM)
- MIC [3]: 0.1 µg/mL (≈ 0.353 µM)
- MIC (Trichophyton rubrum): 0.1 µg/mL (≈ 0.353 µM)
